Measured values as given in article PMC12535076, “Neurotherapeutic effects of Vutiglabridin as a Paraoxonase-2 modulator in preclinical models of Parkinson’s disease” (Molecular Neurodegeneration, 2025).
pIC50: −log10 of the molar value.

Tests used:
[1] = test system: MPTP-injected C57BL/6 mice; test: MPTP-injected sub-acute PD mouse model (pole test, rotarod, TH immunohistochemistry); assay type: in vivo
Protocol: Animals were allowed at least 1 week of acclimatization before being subjected to the study and were housed in a regulated environment with a 12-h/12-h light/dark cycle. Food and water were provided ad libitum. The animal experiment was carried out in accordance with the National Institutes of Health Guide for the Care and Use of Laboratory Animals (NIH Publications No. 80–23; revised 1996). All procedures for handling mice were carried out in accordance with “Principles of Laboratory Animal Care” and the Animal Care and Use guidelines of Kyung Hee University, Seoul, Korea (KHSASP-20-163).
MPTP was dissolved in distilled water and injected intraperitoneally for five days from day 10 of the 21-day experiment period. Vuti or rasagiline was administered via oral gavage for 21 days. Vehicles for both Vuti and MPTP (distilled water) were administered to all mice. Mice were randomly divided for all studies. For the first set of studies shown in Fig. 3, each group consisted of 5 animals.
To determine forelimb and hindlimb motor coordination and balance, we performed the rotarod test as described previously. Also, the pole test was performed to measure bradykinesia. For the rotarod test, the animals were pre-trained on the rotating bar of a rotarod unit set (LE 8500, Letica, Spain) on days 18 and 19 before the test on day 20. During pre-training, three trials per day were performed (5 rpm rotation speed on the first day, 15 rpm rotation speed on the second day). Mice were kept on the rotating bar (7.3-cm diameter) for 5 min on each trial. On day 20, the time spent on the rotating bar at 20 rpm, which was defined as the latent period, was recorded. Performance was recorded as 300 s if the latent period exceeded 300 s. Mice had at least 5 min of rest between trials to reduce stress and fatigue. Each animal underwent three test trials, and the mean of the test results was subjected to statistical analysis. For the pole test, mice were held on the top of the pole (diameter 8 mm, height 55 cm, with a rough surface). The time to land down and place four fee on the floor was recorded as the time for locomotion activity (T-LA).
On day 21, mice were anesthetized with sodium pentobarbital (50 mg/kg intraperitoneally) and transcardially perfused with saline containing 0.5% sodium nitrate and heparin (10 U/mL) and then fixed with 4% PFA in 0.1 M phosphate-buffer (PB, pH 7.2). Dissected brains were post-fixed overnight in buffered 4% PFA at 4 °C and stored in a 30% sucrose solution until they sank. Brains were cryosectioned into 30 μm thick coronal sections in a Cryostat (Microsystems AG, Leica, Wetzlar, Germany) and stored until use at 4℃ in a cryoprotectant (25% ethylene glycol, 25% glycerol, 0.2 M PB, and water). All sections were collected in six separate series and processed for immunostaining.
Free-floating brain sections were processed with the avidin-biotin peroxidase complex (ABC) complex (Vector Laboratories, Burlingame, CA, USA) method. Briefly, brain sections were incubated with primary rabbit anti-TH antibodies (1:1000; Pel-Freez Biologicals, Rogers, AR, USA) overnight at 4 °C, with biotinylated anti-rabbit IgG (1:400) for 1 h at room temperature, and then with the ABC solution (1:1:200) for 1 h at room temperature. The immunoperoxidase signals of TH was detected by incubating sections with 0.5 mg/ml 3,3′-diaminobenzidine (Sigma, St. Louis, MO, USA) in 0.1 M PB containing 0.003% H2O2. Stained brain sections were mounted on gelatin-coated slides and imaged under a bright-field microscope (Olympus Optical, Tokyo, Japan). TH-positivity in the ST was measured by the optical density of TH-positive fibers at x40 magnification using ImageJ software (National Institutes of Health, Bethesda, MD, USA). TH-positive cells in the SNpc in brain tissue Sect. (5 sections/series) were counted at x100 magnification as previously described. […]

MAO-B [2] = target: T1, MAO-B (Homo sapiens, UniProt P27338); test: HRP/Amplex red based MAO-B enzyme activity assay; assay type: biochemical; conditions: read-out: IC50, MAO-B assay, HRP/AR method
T1 sequence (P27338 1-520): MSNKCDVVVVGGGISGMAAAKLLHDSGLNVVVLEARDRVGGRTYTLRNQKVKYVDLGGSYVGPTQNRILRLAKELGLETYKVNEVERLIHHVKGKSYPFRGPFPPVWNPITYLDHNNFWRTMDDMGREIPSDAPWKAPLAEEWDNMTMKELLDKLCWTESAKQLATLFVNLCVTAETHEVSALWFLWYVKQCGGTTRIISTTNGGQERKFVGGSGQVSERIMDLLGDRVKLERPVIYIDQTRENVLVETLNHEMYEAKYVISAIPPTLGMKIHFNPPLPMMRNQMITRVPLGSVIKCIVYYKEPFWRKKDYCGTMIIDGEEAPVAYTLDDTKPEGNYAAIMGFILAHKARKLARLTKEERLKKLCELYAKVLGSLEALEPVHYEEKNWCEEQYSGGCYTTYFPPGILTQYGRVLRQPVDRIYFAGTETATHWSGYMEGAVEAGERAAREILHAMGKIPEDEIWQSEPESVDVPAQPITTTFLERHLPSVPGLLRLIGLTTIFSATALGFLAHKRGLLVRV
Protocol: (§1) MAO-A or MAO-B enzyme solutions were prepared by diluting 10 µL of a 2.5 mg/mL MAO-A or MAO-B stock into 10 mL of 50 mM sodium phosphate buffer (pH 7.4). A substrate assay mixture was then prepared by combining benzylamine (for MAO-B) or tyramine (for MAO-A) from a 100 mM stock (200 µL in 10 mL phosphate buffer, final concentration 1 mM) with 100 µL of a 20 mM AR reagent stock (final concentration 0.1 mM) and 100 µL of a 200 U/mL HRP stock (final concentration 1 U/mL) in 10 mL phosphate buffer. […] Next, 50 µL of the substrate assay mixture was added, and the reaction was carried out at 37 °C for 60 min. The production of resorufin was quantified by fluorescence measurement (excitation at 540 nm and emission at 580 nm).

MAO-B [3] = target: T1, MAO-B; test: ROS Glo based MAO-B enzyme activity assay; assay type: biochemical; conditions: read-out: IC50, MAO-B assay, ROS-Glo method
Protocol: An enzyme solution was prepared by diluting 10 µL of a 2.5 mg/mL MAO-A or MAO-B stock in 10 mL of 50 mM sodium phosphate buffer (pH 7.4). A substrate solution was prepared by diluting 200 µL of a 100 mM benzylamine (or tyramine) stock in 10 mL phosphate buffer to achieve a final concentration of 1 mM. For each 96-well plate experiment, 12.5 µL of a 1× H2O2 probe solution was added to 1 mL of the probe dilution buffer from the ROS Glo™ kit. Separately, 40 µL of cysteine and enhancer were diluted into 4 mL of Luciferin solution. In each well, 49 µL of the enzyme solution was dispensed, followed by 1 µL of the test compound, and incubated for 30 min. […] Next, 10 µL of the H2O2 probe solution was added and incubated for 15 min. […] Luminescence was subsequently recorded using a microplate luminescence reader (SpectraMax i3, Molecular Devices).

MAO-A [4] = target: T2, MAO-A (Homo sapiens, UniProt P21397); test: HRP/Amplex red based MAO-A enzyme activity assay; assay type: biochemical; conditions: read-out: IC50, MAO-A assay, HRP/AR method
T2 sequence (P21397 1-527): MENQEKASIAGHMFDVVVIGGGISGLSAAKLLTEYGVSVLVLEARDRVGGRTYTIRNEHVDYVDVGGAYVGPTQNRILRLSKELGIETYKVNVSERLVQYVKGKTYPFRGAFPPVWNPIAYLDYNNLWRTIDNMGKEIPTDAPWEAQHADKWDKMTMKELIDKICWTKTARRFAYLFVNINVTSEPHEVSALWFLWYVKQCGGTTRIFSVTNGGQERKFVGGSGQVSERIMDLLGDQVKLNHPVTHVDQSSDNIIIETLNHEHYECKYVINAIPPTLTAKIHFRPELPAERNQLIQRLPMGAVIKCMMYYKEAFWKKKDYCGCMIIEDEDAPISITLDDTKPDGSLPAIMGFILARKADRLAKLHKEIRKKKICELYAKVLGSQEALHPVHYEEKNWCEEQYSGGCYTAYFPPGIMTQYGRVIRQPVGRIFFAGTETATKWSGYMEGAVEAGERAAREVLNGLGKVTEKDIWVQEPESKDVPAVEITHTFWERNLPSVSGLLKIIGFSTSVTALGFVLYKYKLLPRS
Protocol: as §1

MAO-A [5] = target: T2, MAO-A; test: ROS Glo based MAO-A enzyme activity assay; assay type: biochemical; conditions: printed as 'separate MAO-B assay' within the MAO-A panel (b); read-out: IC50, ROS-Glo method, panel (b)
Protocol: An enzyme solution was prepared by diluting 10 µL of a 2.5 mg/mL MAO-A or MAO-B stock in 10 mL of 50 mM sodium phosphate buffer (pH 7.4). A substrate solution was prepared by diluting 200 µL of a 100 mM benzylamine (or tyramine) stock in 10 mL phosphate buffer to achieve a final concentration of 1 mM. For each 96-well plate experiment, 12.5 µL of a 1× H2O2 probe solution was added to 1 mL of the probe dilution buffer from the ROS Glo™ kit. Separately, 40 µL of cysteine and enhancer were diluted into 4 mL of Luciferin solution. In each well, 49 µL of the enzyme solution was dispensed, followed by 1 µL of the test compound, and incubated for 30 min. Then, 49 µL of the substrate solution was added, and the reaction proceeded at 37 °C for 60 min. Next, 10 µL of the H2O2 probe solution was added and incubated for 15 min. Subsequently, 40 µL of a luciferin solution containing cysteine and an enhancer was added, followed by an additional 30-minute incubation at 37 °C. Luminescence was subsequently recorded using a microplate luminescence reader (SpectraMax i3, Molecular Devices).

[6] = MPTP mice, Vuti 1, 50, 100 mg/kg/day or rasagiline 0.1 mg/kg/day orally for 21 days

For `C#CCN[C@@H]1CCc2ccccc21` [rasagiline, Rasagiline, reference compound], the “effect on T-LA in the pole test” value [1, 6] was “significantly normalized” and the “effect on latency to fall in the rotarod test” value [1, 6] was “significantly normalized”.

For `CC1(C)C=Cc2c(ccc3c2OC[C@@H](c2ccc(O)cc2O)C3)O1` [Glabridin], the pIC50 (MAO-B [2]) was 5.14, the pIC50 (MAO-B [3]) was 4.81 and the pIC50 (MAO-A [4]) was 4.57. The pIC50 (MAO-A [5]) was 4.92.

With `CN1CC=C(c2ccccc2)CC1` [MPTP, 1-methyl-4-phenyl-1,2,3,6-tetrahydropyridine, reference compound] the “latency time to reach the floor (T-LA) in the pole test” value ([1]; MPTP 30 mg/kg/day i.p. for 5 days, no drug, vs 5.2 ± 0.9 s vehicle-only) was 9.6 ± 2.1 s and the “latency to fall in the rotarod test” value ([1]; MPTP 30 mg/kg/day i.p. for 5 days, no drug, vs 196.4 ± 77.3 s vehicle-only) was 63.5 ± 34.5 s.
